Consider twelve compounds from US4061637A, “Certain 4-aryl-5-(4-phenylpiperazino)alkyl-4-thiazolin-2-ones” (priority 1974, dated 1977).

Data set [1] can be described thus: Acute toxicity under LD50 mouse. Conditions: in vivo, ip.
Data set [2] in a line: Ulcers by constriction (stress) in the rat. The class given is in vivo. The note with it: 4 h; for responders at 10 mg/kg / inhibition in vivo at 10 mg/kg: 10 mg/kg ip; for responders at 10 mg/kg / responders at 30 mg/kg: read-out: Anti-ulcer activity, ulcers by stress in the rat, Protected rats %; for inhibition in vivo at 10 mg/kg / inhibition in vivo at 30 mg/kg: read-out: Anti-ulcer activity, ulcers by stress in the rat, Reduction in ulcers %.
Experimental: The method described by Rossi and colleagues (Compt. Rend. Soc. Biol., 150, 2124, 1956) was followed in which the formation of gastric ulcers is induced by immobilising the animal, in a state of fast for 48 hours, in a net for a period of 4 hours.
The protection given by treatment with the drug under examination before the beginning of the constriction period is evaluated by counting both the ulcers and the number of subjects without ulcers.

The test system of data set [3] is nor-adrenalin. The data set can be described thus: Antagonism towards a lethal dose of nor-adrenalin in the rat (α-adrenolytic activity). The class given is in vivo. The note with it: for ED50: po, 1 h, read-out: α-adrenolytic activity lethal NA rat ED50. The procedure: Antagonism towards a lethal dose of nor-adrenalin in the rat
The animals are treated with a dose of nor-adrenalin (0.5 mg/kg) which is 100% lethal in animals. The activity is calculated by the number of animals protected from death by prior administration of the drug under examination one hour before the agonist. Where possible the ED50 was calculated.

Data set [4] in a line: Carrageen oedema in the conscious rat (anti-inflammatory activity). The class given is in vivo. Conditions: for ED30: 1 h, ip, one hour before carrageen, read-out: Anti-inflammatory activity carrageenin oedema rat ED30. A general note: The carrageenan paw model is a standard test of acute inflammation.
Experimental: Anti-inflammatory activity was evaluated by the method of Winter and colleagues (Proc. Soc. Exp. Biol., 111, 544, 1962) by endoperitoneally injecting the product under examination one hour before inducing oedema by injecting 0.05 ml. of a 1% suspension of carrageen (intradermally into the plantar portion of a rear paw).
The difference between the volume of the paw determined plethysmographically one hour before and three hours after the carrageen gives a quantitative estimate of the activity of the product tested. Where possible, the ED30 was calculated.
Data set [5] can be described thus: Pinching the tail of the mouse (systemic analgesic activity). The class given is in vivo. The note with it: po, 0.5 h; for inhibition in vivo at 200 mg/kg: 200 mg/kg os; for inhibition in vivo at 100 mg/kg: 100 mg/kg os.
Experimental: To evaluate the analgesic activity, the method described by Bianchi and colleagues (Brit. J. Pharmacol., 9, 280, 1954) was followed which consists of applying an arterial pincer to the base of the tail in animals treated orally 30 minutes previously with the drug under examination, observing that the control animals react to the pain by squealing.
A short description of data set [6]: Cataleptic activity in the mouse. The class given is in vivo. The note with it: for ED50: po, read-out: Cataleptic activity mouse ED50.
A short description of data set [7]: Antagonism towards electric shock convulsions in the mouse. The class given is in vivo. The note with it: po, 0.5 h, read-out: Anti-convulsion activity, electric shock, mouse, % att.; for inhibition in vivo at 200 mg/kg: 200 mg/kg os; for inhibition in vivo at 100 mg/kg: 100 mg/kg os.
Experimental: This is evaluated by observing the protection given by pretreatment with the drug (30 minutes) against tonic convulsions obtained by applying a 35 volt current to the eyeballs.
Data set [8] is described as follows: Inhibition of spontaneous motility in the mouse. The note with it: for ED50: po, 0.5 h, read-out: Spontaneous motility inhibition mouse ED50. The class given is in vivo.
Experimental: This is evaluated by an actophotometric method, which consists of placing the mice, 30 minutes after oral treatment with the drug or the carrier, in a cage provided with a photoelectric cell counter and counting the number of times the photoelectric cell is passed during a 10 minute stay.
[9] abbreviates: mouse, os, 30 minutes after treatment.
[10] abbreviates: rat, os, one hour before nor-adrenalin 0.5 mg/kg.

Where a name gives a salt, the structure may show the parent alone. Read-outs that look alike come from different tables or passages of the source.

As to `COc1ccc(-c2[nH]c(=O)sc2CCN2CCN(c3ccccc3)CC2)cc1` [LR 639, 4-p-methoxyphenyl-5-β-(N'-phenylpiperazino)ethyl-4-thiazolin-2-one], the LD50 (commonly the dose expected to kill half of the subjects tested) in data set [1] was > 1000 mg/kg. In data set [2] (rat), the responders at 10 mg/kg amounted to 30%. The inhibition in vivo at 10 mg/kg in data set [2] (rat) turned out to be 28%. Besides, the ED50 (as a rule, the dose at which the effect has come halfway, by size or by number of responders) worked out at 45 mg/kg in data set [3] (Rattus norvegicus); 88 mg/kg in data set [6] (mouse, os); 33 mg/kg in data set [8] (setting [9]). The “Anti-inflammatory activity carrageenin oedema rat, percentage activity (ED30 lacking)” value in data set [4] (200 mg/kg ip) was 8.1%. The inhibition in vivo at 200 mg/kg in data set [5] (mouse, 30 minutes) came out at 0%; in data set [7] (mouse, 35 volt) it was 0%.
With `O=c1[nH]c(-c2ccc(Cl)cc2)c(CN2CCCCC2)s1` [LR 659, 4-p-chlorophenyl-5-piperidinomethyl-4-thiazolin-2-one], the LD50 in data set [1] is > 1000 mg/kg. Further, in data set [2] (rat), the responders at 10 mg/kg stood at 50% and the inhibition in vivo at 10 mg/kg was 50%. The inhibition in vivo at 200 mg/kg in data set [5] (mouse, 30 minutes) amounted to 0%. Moreover, the inhibition in vivo at 200 mg/kg in data set [7] (mouse, 35 volt) is 30%.
Take `O=c1[nH]c(-c2ccc(F)cc2)c(CCN2CCN(c3ccccc3)CC2)s1` [LR 599, 4-p-fluorophenyl-5-β-(N'-phenylpiperazino)ethyl-4-thiazolin-2-one]: in data set [1], the LD50 was > 1000 mg/kg. The responders at 30 mg/kg in data set [2] (rat, 30 mg/kg ip) came out at 20%. The inhibition in vivo at 30 mg/kg in data set [2] (rat, 30 mg/kg ip) stood at 48%. The ED50 was found to be 45 mg/kg in data set [3] (Rattus norvegicus); 200 mg/kg in data set [6] (mouse, os); 69.2 mg/kg in data set [8] (setting [9]). Moreover, the “Anti-inflammatory activity carrageenin oedema rat, percentage activity (ED30 lacking)” value in data set [4] (200 mg/kg ip) came out at 20%. For the same compound, the inhibition in vivo at 200 mg/kg stood at 30% in data set [5] (mouse, 30 minutes) and 0% in data set [7] (mouse, 35 volt).
In data set [1], `O=c1[nH]c(-c2ccc(F)cc2)c(CCN2CCC3(CC2)OCCCCO3)s1` [LR 648, 4-p-fluorophenyl-5-β-[7,12-dioxa-3-azaspiro[5,6]-dodec-3-yl]-ethyl-4-thiazolin-2-one hydrochloride] registered an LD50 of 125 mg/kg. Further, the responders at 10 mg/kg in data set [2] (rat) was determined as 10%. Besides, the inhibition in vivo at 10 mg/kg in data set [2] (rat) worked out at 32%. The “α-adrenolytic activity lethal NA rat, percentage activity (ED50 lacking)” value in data set [3] (rat, 7 mg/kg os) is 0%. Besides, the inhibition in vivo at 26 mg/kg in data set [5] (mouse, 26 mg/kg os, 30 minutes) was 0%; in data set [7] (mouse, 26 mg/kg os, 35 volt) it was 20%. In addition, the “Spontaneous motility inhibition mouse, percentage activity (ED50 lacking)” value in data set [8] (mouse, 26 mg/kg os) is recorded as 20%.
With `CC(=O)n1c(-c2ccc(F)cc2)c(CCN2CCN(c3ccccc3)CC2)sc1=O` [LR 653, 3-acetyl-4-p-fluorophenyl-5-β-(N'-phenylpiperazino)-ethyl-4-thiazolin-2-one], in data set [1], the LD50 worked out at 420 mg/kg. In addition, the median effective dose (ED50) in data set [3] (Rattus norvegicus) is 12.8 mg/kg; in data set [6] (mouse, os), 80 mg/kg; in data set [8] (setting [9]) it was 11.6 mg/kg. The “Anti-inflammatory activity carrageenin oedema rat, percentage activity (ED30 lacking)” value in data set [4] (100 mg/kg ip) stood at 25.4%. In addition, the inhibition in vivo at 100 mg/kg in data set [5] (mouse, 30 minutes) stood at 20%; in data set [7] (mouse, 35 volt) it was 20%.
Regarding `O=c1[nH]c(-c2ccc(Cl)cc2)c(CCN2CCN(c3ccccc3)CC2)s1` [LR 638, 4-p-chlorophenyl-5-β-(N'-phenylpiperazino)ethyl-4-thiazolin-2-one], the median lethal dose (LD50) in data set [1] is > 1000 mg/kg. Further, the responders at 10 mg/kg in data set [2] (rat) was 60%. In addition, the inhibition in vivo at 10 mg/kg in data set [2] (rat) worked out at 63%. Besides, the “α-adrenolytic activity lethal NA rat, percentage activity (ED50 lacking)” value in data set [3] (rat, 50 mg/kg os) was found to be 0%. For the same compound, the “Anti-inflammatory activity carrageenin oedema rat, percentage activity (ED30 lacking)” value in data set [4] (200 mg/kg ip) is recorded as 14%. Further, the inhibition in vivo at 200 mg/kg in data set [5] (mouse, 30 minutes) is 10%; in data set [7] (mouse, 35 volt) it was 10%. For the same compound, the ED50 in data set [6] (mouse, os) stood at 200 mg/kg; in data set [8] (setting [9]), 200 mg/kg.
For `O=c1[nH]c(-c2ccc(F)cc2)c(CCN2CCC(O)(c3ccc(Cl)cc3)CC2)s1` [LR 613, 4-p-fluorophenyl-5-β-[(4'-hydroxy-4'-p-chlorophenyl)-piperidino]-ethyl-4-thiazolin-2-one hydrochloride], in data set [1], the LD50 was determined as 300 mg/kg. Also, the responders at 30 mg/kg in data set [2] (Rattus norvegicus, ip) was determined as 60%. For the same compound, the inhibition in vivo at 30 mg/kg in data set [2] (Rattus norvegicus, ip) came out at 80%. The “α-adrenolytic activity lethal NA rat, percentage activity (ED50 lacking)” value in data set [3] (rat, 15 mg/kg os) is recorded as 20%. In addition, the “Anti-inflammatory activity carrageenin oedema rat, percentage activity (ED30 lacking)” value in data set [4] (60 mg/kg ip) was found to be 15.2%. In addition, the inhibition in vivo at 60 mg/kg in data set [5] (Mus musculus, read-out: Systemic analgesic activity, tail pinching in mouse, %) was determined as 10%; in data set [7] (Mus musculus) it was 10%. The ED50 in data set [6] (Mus musculus) is 32.4 mg/kg; in data set [8] (Mus musculus) it was 18 mg/kg.
Turning to `O=c1[nH]c(-c2ccc(Cl)cc2)c(CN2CCN(c3ccccc3)CC2)s1` [LR 660, 4-p-chlorophenyl-5-(N'-phenylpiperazino)methyl-4-thiazolin-2-one], the LD50 in data set [1] was > 1000 mg/kg. Moreover, in data set [2] (rat), the responders at 10 mg/kg is 50% and the inhibition in vivo at 10 mg/kg is 50%. In addition, the inhibition in vivo at 200 mg/kg in data set [7] (mouse, 35 volt) was determined as 20%. In addition, in data set [8] (setting [9]), the ED50 turned out to be 100 mg/kg.
Turning to `CN(CCc1ccccc1)CCc1sc(=O)[nH]c1-c1ccc(Cl)cc1.O=C(O)/C=C\C(=O)O` [LR 628, 4-p-chlorophenyl-5-β-(N-methylphenylethylamino)ethyl-4-thiazolin-2-one maleate], the LD50 in data set [1] is 400 mg/kg. In addition, the responders at 30 mg/kg in data set [2] (rat, 30 mg/kg ip) turned out to be 0%. In addition, the inhibition in vivo at 30 mg/kg in data set [2] (rat, 30 mg/kg ip) was found to be 0%. For the same compound, the figures for the ED50 in data set [3] (setting [10]) and in data set [8] (setting [9]) were 8 mg/kg and 100 mg/kg, respectively. Besides, the ED30 in data set [4] came to 35 mg/kg. Moreover, the inhibition in vivo at 100 mg/kg amounted to 0% in data set [5] (mouse, 30 minutes) and 0% in data set [7] (mouse, 35 volt).
Turning to `Cn1c(-c2ccc(F)cc2)c(CCN2CCN(c3ccccc3)CC2)sc1=O` [LR 652, 3-methyl-4-p-fluorophenyl-5-β-(N'-phenylpiperazino)-ethyl-4-thiazolin-2-one], the LD50 in data set [1] is > 1000 mg/kg. Also, the responders at 30 mg/kg in data set [2] (rat, 30 mg/kg ip) amounted to 50%. Further, in data set [2] (rat, 30 mg/kg ip), the inhibition in vivo at 30 mg/kg turned out to be 68%. Further, the ED50 in data set [3] (Rattus norvegicus) came out at 13.3 mg/kg; in data set [6] (mouse, os), 52.4 mg/kg; in data set [8] (setting [9]), 23 mg/kg. Also, the ED30 in data set [4] turned out to be 163 mg/kg. Also, the inhibition in vivo at 200 mg/kg came to 0% in data set [5] (mouse, 30 minutes) and 40% in data set [7] (mouse, 35 volt).
Compound `O=c1[nH]c(-c2ccccc2)c(CCN2CCN(c3ccccc3)CC2)s1` [LR 637, 4-phenyl-5-β-(N'-phenylpiperazino)ethyl-4-thiazolin-2-one] had a median lethal dose (LD50) in data set [1] of 1000 mg/kg. Moreover, the responders at 10 mg/kg in data set [2] (rat) worked out at 57%. The inhibition in vivo at 10 mg/kg in data set [2] (rat) came out at 86%. Besides, the 50% effective dose (ED50) in data set [3] (Rattus norvegicus) turned out to be 18 mg/kg; in data set [6] (mouse, os), 200 mg/kg; in data set [8] (setting [9]) it was 200 mg/kg. The “Anti-inflammatory activity carrageenin oedema rat, percentage activity (ED30 lacking)” value in data set [4] (200 mg/kg ip) was 11.6%. Besides, the inhibition in vivo at 200 mg/kg in data set [5] (mouse, 30 minutes) was determined as 30%; in data set [7] (mouse, 35 volt) it was 20%.
Turning to `CN(CCc1ccccc1)CCc1sc(=O)[nH]c1-c1ccc(F)cc1.O=C(O)/C=C\C(=O)O` [LR 616, 4-p-fluorophenyl-5-β-(N-methylphenylethylamino)ethyl-4-thiazolin-2-one maleate], the LD50 in data set [1] came to 225 mg/kg. The responders at 30 mg/kg in data set [2] (rat, 30 mg/kg ip) came to 10%. Further, the inhibition in vivo at 30 mg/kg in data set [2] (rat, 30 mg/kg ip) was 0%. Moreover, the results for the ED50 in data set [3] (setting [10]) and in data set [8] (setting [9]) were 5.5 mg/kg and 40 mg/kg, respectively. Besides, in data set [4], the ED30 was 54 mg/kg. In addition, the inhibition in vivo at 40 mg/kg was 0% in data set [5] (mouse, 40 mg/kg os, 30 minutes) and 0% in data set [7] (mouse, 40 mg/kg os, 35 volt). For the same compound, the “Cataleptic activity mouse, percentage activity (ED50 lacking)” value in data set [6] (mouse, 40 mg/kg os) came out at 0%.
